According to patent US7892350B2, “Sacrificial agents for fly ash concrete” (Boral Material Technologies Inc., priority 2003, dated 2011):
Several values for one entry are separate records, joined by “and”; a condition that tells them apart may be missing. Equal values may be shown once.

Legend:
[1] = Air entrainment in fresh concrete (ASTM C 231-97); conditions: for Air: PCC cement concrete, no fly ash, no Air 40
[2] = Paste air entrainment, Maximum air protocol; conditions: for Air entrained at 66 min: Air 30 (0.0125 wt %)/X/ButOH=1/4/4, X = the labelled sulfonated SA
Outline: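 Pastes of 400 g cementitious powder in water plus additives, hand-mixed 1 min then mixer-stirred 2 min at 25 °C; water/binder ratio set so additive-free paste gives 115±5 mm mini-slump spread at 10 min. Air content calculated from mass of paste filling a fixed-volume cylinder at 6, 36 and 66 min, paste at rest between readings and hand-stirred 1 min beforehand.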

[3] = Adsorption/precipitation of SA or AEA in 10 wt % aqueous fly ash or cement slurries at pH 12.5; assay type: physicochemical; conditions: initial SA 3 mM
[4] = Precipitation in slurry extract or leachate; assay type: physicochemical; conditions: pH 12.5, entries in parentheses
[5] = Paste air entrainment, Minimum air protocol
Outline: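 Pastes of 400 g cementitious powder were hand-mixed 1 min, then machine-stirred 2 min at 25° C with the mixer 1.0 inch off the bottom and a 1.0 inch stroke. Water was set for a 115±5 mm mini-slump spread without additives. Air content came from the mass of a filled cylinder at 6, 36 and 66 min, with 1 min hand stirring before each reading.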

Adsorption (wt % Adsorbed) ([3]; 10 wt % fly ash B1 (LOI 4.36%) slurry, Air 30/Air 40 0.105 wt %): 14 wt %
Adsorption (wt % Adsorbed) ([3]; 10 wt % fly ash C1, class C (LOI 1.62%) slurry, Air 30/Air 40 0.105 wt %): 84 wt %
Adsorption (wt % Adsorbed) ([3]; 10 wt % fly ash C2 (LOI 3.32%) slurry): 17 wt %
Adsorption (wt % Adsorbed) ([3]; 10 wt % fly ash M1 (LOI […]) slurry, Air 30/Air 40 0.105 wt %): 27 wt %
Adsorption (wt % Adsorbed) ([3]; 10 wt % fly ash M2 (LOI 5.34%) slurry, Air 30/Air 40 0.105 wt %): 13 wt %
Adsorption (wt % Adsorbed) ([3]; 10 wt % fly ash M3 (LOI 11.33%) slurry, Air 30/Air 40 0.105 wt %): 18 wt %
Adsorption (wt % Adsorbed) ([3]; 10 wt % fly ash N (LOI 0.30%) slurry): 26 wt %
Precipitation (wt % precipitated) ([4]; solution extracted from 10 wt % fly ash B1 (LOI 4.36%) slurry): 0 wt %
Precipitation (wt % precipitated) ([4]; solution extracted from 10 wt % fly ash C1, class C (LOI 1.62%) slurry): 31 wt %
Precipitation (wt % precipitated) ([4]; solution extracted from 10 wt % fly ash C2 (LOI 3.32%) slurry): 0 wt %
Precipitation (wt % precipitated) ([4]; solution extracted from 10 wt % fly ash M1 (LOI […]) slurry): 0 wt %
Precipitation (wt % precipitated) ([4]; solution extracted from 10 wt % fly ash M2 (LOI 5.34%) slurry): 0 wt %
Precipitation (wt % precipitated) ([4]; solution extracted from 10 wt % fly ash M3 (LOI 11.33%) slurry): 0 wt %
Precipitation (wt % precipitated) ([4]; solution extracted from 10 wt % fly ash N (LOI 0.30%) slurry): 0 wt %
Substance: Sodium Di-isopropopyl naphthalene sulfonate [ND]
Air ([1]; ND alone 0.001 % CM): 2.3%
Air ([1]; ND alone 0.003 % CM): 4.1% and 3.1%
Air ([1]; ND alone 0.005 % CM): 4.6% and 4.8%
Air ([1]; ND alone 0.010 % CM): 4.6%
Air ([1]; ND alone 0.020 % CM): 3.9%
Air ([1]; ND alone 0.030 % CM): 3.8%
Air ([1]; ND alone 0.040 % CM): 3.9%
increase in air entrained above the control values ([1]; cement-only concrete without air entrainment agents, various dosages): 2-3%
Air entrained at 66 min ([2]; 50:50 fly ash B1 (LOI 4.36%):PCA paste): 17 vol %
Air entrained at 66 min ([2]; 50:50 fly ash D (LOI […]):PCA paste): 24 vol %
Air entrained at 66 min ([2]; 50:50 fly ash M2 (LOI 5.34%):PCA paste): 11 vol %
Air entrained ([2]; PCA cement paste, 0.0125% SA or AEA alone, Maximum air protocol): 7 vol %
Air entrained at 66 min ([2]; PCA paste, no fly ash): 23 vol %
air entrained (average) ([2]; fly ash:cement pastes, SA added at four (4) times the fixed Air 30 dosage (0.0125%)): 14%
Air entrained ([5]; 50:50 fly ash B1 (LOI 4.36%):PCA paste, 0.1 wt % Air 30 alone or with 0.05 wt % of the SA): 4 vol %
Air entrained ([5]; 50:50 fly ash C1 (LOI 1.62%):PCA paste, 0.1 wt % Air 30 alone or with 0.05 wt % of the SA): 4 vol %
Air entrained ([5]; 50:50 fly ash D (LOI […]):PCA paste, 0.1 wt % Air 30 alone or with 0.05 wt % of the SA): 3 vol %
Air entrained ([5]; 50:50 fly ash M1 (LOI […]):PCA paste, 0.1 wt % Air 30 alone or with 0.05 wt % of the SA): 5 vol %
Air entrained ([5]; 50:50 fly ash M2 (LOI 5.34%):PCA paste, 0.1 wt % Air 30 alone or with 0.05 wt % of the SA): 4 vol %
Air entrained ([5]; 50:50 fly ash M3 (LOI 11.33%):PCA paste, 0.1 wt % Air 30 alone or with 0.05 wt % of the SA): 4 vol %
Air entrained ([5]; 50:50 fly ash R (LOI […]):PCA paste, 0.1 wt % Air 30 alone or with 0.05 wt % of the SA): 3 vol %
Air entrained ([5]; PCA cement paste, 0.1% SA or AEA alone, Minimum air protocol): 3 vol %
Average of air entrained ([5]; over the fly ash:PCA pastes of Table 7, 0.1 wt % Air 30 alone or with 0.05 wt % of the SA): 4%
